According to ChEMBL document CHEMBL1201862, “PubChem BioAssay data set” (2004):
The source made the active and inactive calls.

Key:
[1] = biological target: T1, Rac GTPase-activating protein 1 (Homo sapiens, UniProt Q9H0H5); assay: blockers of MgcRacGAP-driven Rac1 GTP hydrolysis – biochemical, ADP Hunter fluorescence, primary and confirmatory, confirmation (AID 624330); assay type: functional
T1 sequence (Q9H0H5 whole entry): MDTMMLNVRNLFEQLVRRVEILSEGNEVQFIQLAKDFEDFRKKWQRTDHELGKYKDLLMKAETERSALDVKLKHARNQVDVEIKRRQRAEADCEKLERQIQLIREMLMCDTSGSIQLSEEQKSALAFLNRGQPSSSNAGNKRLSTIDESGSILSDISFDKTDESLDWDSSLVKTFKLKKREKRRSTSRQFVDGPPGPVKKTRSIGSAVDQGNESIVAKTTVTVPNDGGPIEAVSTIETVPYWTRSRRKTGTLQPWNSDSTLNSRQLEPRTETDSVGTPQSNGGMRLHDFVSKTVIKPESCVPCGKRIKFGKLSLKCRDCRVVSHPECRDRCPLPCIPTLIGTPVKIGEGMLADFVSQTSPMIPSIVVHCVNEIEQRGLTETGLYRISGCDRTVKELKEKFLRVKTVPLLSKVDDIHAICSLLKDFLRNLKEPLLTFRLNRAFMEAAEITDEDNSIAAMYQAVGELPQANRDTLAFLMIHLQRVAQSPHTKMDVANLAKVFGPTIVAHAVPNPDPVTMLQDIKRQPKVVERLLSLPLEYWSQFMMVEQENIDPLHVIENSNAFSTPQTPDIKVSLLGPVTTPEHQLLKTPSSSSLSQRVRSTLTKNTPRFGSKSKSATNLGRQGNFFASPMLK

Large T antigen = Large T antigen (Simian virus 40, UniProt P03070); assay type: functional, Betapolyomavirus macacae;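 further: Confirmatory-stage PubChem screen for compounds that inhibit SV40 T antigen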
[2] = biological target: T2, Carboxy-terminal domain RNA polymerase II polypeptide A small phosphatase 1 (Homo sapiens, UniProt Q9GZU7); assay: CTDSP1 inhibitors, concentration-response, biochemical, absorbance readout, ultra-high-throughput screen actives (AID 540297); assay type: functional
T2 sequence (Q9GZU7 whole entry): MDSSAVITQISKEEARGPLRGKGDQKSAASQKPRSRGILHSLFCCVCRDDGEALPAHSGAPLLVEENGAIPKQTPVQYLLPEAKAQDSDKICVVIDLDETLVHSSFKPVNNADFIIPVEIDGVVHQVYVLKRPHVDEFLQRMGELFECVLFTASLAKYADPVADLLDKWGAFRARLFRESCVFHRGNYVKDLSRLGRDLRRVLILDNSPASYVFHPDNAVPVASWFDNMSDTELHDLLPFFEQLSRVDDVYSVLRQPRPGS

Leucine aminopeptidase = biological target: T3, Leucine aminopeptidase (Plasmodium falciparum 3D7, UniProt Q8IL11); assay: P. falciparum M17LAP inhibitors, primary screen, biochemical, fluorogenic H-Leu-NHMec substrate, 1536-well (AID 1619); assay type: functional
T3 sequence (Q8IL11 whole entry): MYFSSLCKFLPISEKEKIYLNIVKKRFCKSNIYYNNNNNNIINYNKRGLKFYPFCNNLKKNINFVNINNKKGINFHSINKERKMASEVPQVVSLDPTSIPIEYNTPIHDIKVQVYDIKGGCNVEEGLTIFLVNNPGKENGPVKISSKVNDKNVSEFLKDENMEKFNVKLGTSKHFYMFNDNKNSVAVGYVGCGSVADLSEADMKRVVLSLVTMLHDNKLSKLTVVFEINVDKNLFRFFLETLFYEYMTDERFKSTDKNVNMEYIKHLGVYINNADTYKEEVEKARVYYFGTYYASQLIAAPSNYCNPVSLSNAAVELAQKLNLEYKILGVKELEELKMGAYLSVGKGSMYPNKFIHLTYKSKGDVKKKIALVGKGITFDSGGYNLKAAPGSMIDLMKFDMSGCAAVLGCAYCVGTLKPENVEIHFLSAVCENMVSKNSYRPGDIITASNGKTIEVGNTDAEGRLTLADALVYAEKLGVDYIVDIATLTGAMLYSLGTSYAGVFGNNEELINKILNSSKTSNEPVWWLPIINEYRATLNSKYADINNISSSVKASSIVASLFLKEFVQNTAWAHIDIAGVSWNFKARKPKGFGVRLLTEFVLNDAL

[3] = biological target: T4, Calpain-2 catalytic subunit (Sus scrofa, UniProt P43367); assay: m-calpain protease blockers, concentration series – biochemical, fluorogenic peptide substrate, dose response (AID 1420); assay type: functional
T4 sequence (P43367 whole entry): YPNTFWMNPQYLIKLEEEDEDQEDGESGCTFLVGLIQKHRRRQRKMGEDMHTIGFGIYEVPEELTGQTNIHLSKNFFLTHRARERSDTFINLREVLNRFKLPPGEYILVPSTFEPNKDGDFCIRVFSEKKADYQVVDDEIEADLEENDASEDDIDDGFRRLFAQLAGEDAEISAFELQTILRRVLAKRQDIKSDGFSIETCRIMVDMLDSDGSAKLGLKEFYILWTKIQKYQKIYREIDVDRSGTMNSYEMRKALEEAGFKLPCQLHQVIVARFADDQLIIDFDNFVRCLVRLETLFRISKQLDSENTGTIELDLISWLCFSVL

[4] = biological target: Eukaryotic translation initiation factor 4E (Mus musculus, UniProt P63073); assay: blockers of eIF4G binding by eIF4E – biochemical, TR-FRET, dose response (AID 855); assay type: functional;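 further: potency for disrupting eIF4E binding to eIF4GI seen as loss of FRET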
[5] = tested on: Streptococcus sp. 'group A'; assay: Streptococcus pyogenes SK(-)GAS viability under kanamycin – luminescence, BacTiterGlo, confirmation, counter-screen for streptokinase expression inhibitor project, dose response (AID 1900); assay type: functional, organism-based
Streptokinase A = biological target: T5, Streptokinase A (Streptococcus pyogenes serotype M1, UniProt P10520); assay: viability-normalized secreted streptokinase activity reduction – plasminogen activation absorbance, OD405, dose response (AID 1914); assay type: functional, Streptococcus pyogenes M1 GAS;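 further: secreted streptokinase activity via plasminogen activation per viability signal from cell pellet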
T5 sequence (P10520 whole entry): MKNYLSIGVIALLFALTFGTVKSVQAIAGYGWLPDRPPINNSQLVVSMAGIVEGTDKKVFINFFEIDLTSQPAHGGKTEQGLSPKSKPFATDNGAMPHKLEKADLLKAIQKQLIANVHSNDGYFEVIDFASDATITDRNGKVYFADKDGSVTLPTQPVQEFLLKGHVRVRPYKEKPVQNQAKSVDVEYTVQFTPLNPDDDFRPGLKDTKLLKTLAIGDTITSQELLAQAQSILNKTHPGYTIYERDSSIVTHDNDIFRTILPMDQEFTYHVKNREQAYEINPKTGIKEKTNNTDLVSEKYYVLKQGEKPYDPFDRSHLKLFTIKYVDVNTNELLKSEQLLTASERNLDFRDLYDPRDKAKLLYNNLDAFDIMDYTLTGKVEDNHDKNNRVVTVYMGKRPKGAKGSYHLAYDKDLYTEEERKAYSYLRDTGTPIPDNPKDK

[6] = Vero E6 cell cytotoxicity, dose response, cytotoxicity control for non-replicating M. tuberculosis project, secondary assay (AID 492998); assay type: functional, VeroE6; settings: Vero C1008
cells = assay type: functional
Streptococcus = assay: GAS UMAA2166 growth inhibition – luminescence, BacTiterGlo, counter-screen for streptokinase expression inhibitor project, dose response (AID 1915); assay type: functional, organism-based;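 further: potency for reduction of bacterial viability or growth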
[7] = biological target: Induced myeloid leukemia cell differentiation protein Mcl-1 (Homo sapiens, UniProt Q07820); assay type: functional
Vero [8] = assay: viability of Vero cells under compound – cytotoxicity control for flavivirus capping enzyme inhibitors (AID 588742); assay type: functional; settings: Chlorocebus sabaeus
[9] = biological target: FAD-linked sulfhydryl oxidase ALR (Homo sapiens, UniProt P55789); assay: ALR-catalysed DTT oxidation blockers – biochemical, H2O2 detection, luminescence, cherry-pick, dose response (AID 493248)
Cytochrome P450 2C9 = Cytochrome P450 2C9 (Homo sapiens, UniProt P11712)
[10] = biological target: Voltage-dependent T-type calcium channel subunit alpha-1H (Homo sapiens, UniProt O95180); assay type: functional;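 further: channel activity triggered by adding a high calcium stimulation buffer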
[11] = biological target: Glucose-6-phosphate 1-dehydrogenase (Homo sapiens, UniProt P11413); assay: inhibition of Homo sapiens G6PD, dose series – biochemical, fluorescence, selectivity assay for P. falciparum G6PD inhibitor project, dose response (AID 504792); assay type: functional
[12] = Luminescence Cell-Based Dose Response HTS to Identify Inhibitors of 5'UTR Stem-Loop Driven Prion Protein mRNA Translation in H4 Neuroglioblastoma Cells. [Related pubchem assays: 1827 (Project Summary), 1813 (Primary HTS)]; assay type: functional
[13] = alpha-synuclein stem-loop luciferase translation blockers – H4 neuroglioma cells, luminescence, confirmation (AID 1988); assay type: functional, cell-based
Vero [14] = assay: cells; assay type: functional; settings: Chlorocebus sabaeus
[15] = luciferase reporter signal suppression in cells – H4 neuroglioma cells, luminescence, dose response (AID 1990); assay type: functional, cell-based
[16] = Luminescence Cell-Based Dose Retest to Confirm Inhibitors of Cancer Stem Cells. [Related pubchem assays (depositor defined):AID2717, AID2721]; assay type: functional; settings: Homo sapiens
[17] = THP-1 cell cytotoxicity, dose response, cytotoxicity control for non-replicating M. tuberculosis project (AID 489025); assay type: functional
[18] = biological target: T6, Heat shock factor protein 1 (Mus musculus, UniProt P38532); assay: enhancement of HSF1-driven luciferase signal – cell-based, NIH3T3, luminescence, dose retest, confirmation (AID 435004); assay type: functional;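 further: stress induced by proteasome inhibitor MG132 added 30 min after compound; luciferase reporter driven by HSF1 response element in NIH3T3 cells; actives raise luminescence as potentiators of the MG132 stress response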
T6 sequence (P38532 whole entry): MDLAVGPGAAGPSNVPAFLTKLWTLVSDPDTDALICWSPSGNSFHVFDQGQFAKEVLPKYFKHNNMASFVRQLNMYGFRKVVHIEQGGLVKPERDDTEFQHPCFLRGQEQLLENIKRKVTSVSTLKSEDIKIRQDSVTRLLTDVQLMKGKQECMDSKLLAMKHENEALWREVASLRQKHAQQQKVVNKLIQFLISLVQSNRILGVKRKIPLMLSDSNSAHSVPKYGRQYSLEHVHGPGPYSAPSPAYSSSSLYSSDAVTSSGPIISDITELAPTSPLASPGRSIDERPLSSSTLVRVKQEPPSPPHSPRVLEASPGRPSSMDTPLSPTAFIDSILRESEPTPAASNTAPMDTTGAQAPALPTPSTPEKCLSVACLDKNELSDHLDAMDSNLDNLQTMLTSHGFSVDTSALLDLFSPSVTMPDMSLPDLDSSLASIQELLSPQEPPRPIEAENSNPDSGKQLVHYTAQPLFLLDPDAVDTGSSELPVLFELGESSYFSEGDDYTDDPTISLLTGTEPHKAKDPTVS

[19] = biological target: 72 kDa type IV collagenase (Homo sapiens, UniProt P08253); assay: Dose Response validation of uHTS RPN11 inhibitor hits using a MMP-2 Fluorescence assay.; assay type: functional
[20] = biological target: 26S proteasome non-ATPase regulatory subunit 14 (Homo sapiens, UniProt O00487); assay: inhibition of proteasome subunit RPN11 – biochemical, fluorescence polarization, uHTS hits, confirmation (AID 602368); assay type: functional
Prothrombin = Prothrombin (Bos taurus, UniProt P00735); assay: thrombin protease inhibitors – biochemical, fluorescence polarization, uHTS hits, dose response (AID 602369); assay type: functional

Eukaryotic translation initiation factor 4E, sequence (P63073 whole entry): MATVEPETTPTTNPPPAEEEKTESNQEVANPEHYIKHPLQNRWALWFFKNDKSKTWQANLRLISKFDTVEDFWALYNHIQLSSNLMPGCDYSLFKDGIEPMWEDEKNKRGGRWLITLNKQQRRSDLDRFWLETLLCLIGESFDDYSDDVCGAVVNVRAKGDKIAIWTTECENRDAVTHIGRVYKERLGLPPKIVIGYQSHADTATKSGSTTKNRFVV
Large T antigen, sequence (P03070 whole entry, the tested form may be a part): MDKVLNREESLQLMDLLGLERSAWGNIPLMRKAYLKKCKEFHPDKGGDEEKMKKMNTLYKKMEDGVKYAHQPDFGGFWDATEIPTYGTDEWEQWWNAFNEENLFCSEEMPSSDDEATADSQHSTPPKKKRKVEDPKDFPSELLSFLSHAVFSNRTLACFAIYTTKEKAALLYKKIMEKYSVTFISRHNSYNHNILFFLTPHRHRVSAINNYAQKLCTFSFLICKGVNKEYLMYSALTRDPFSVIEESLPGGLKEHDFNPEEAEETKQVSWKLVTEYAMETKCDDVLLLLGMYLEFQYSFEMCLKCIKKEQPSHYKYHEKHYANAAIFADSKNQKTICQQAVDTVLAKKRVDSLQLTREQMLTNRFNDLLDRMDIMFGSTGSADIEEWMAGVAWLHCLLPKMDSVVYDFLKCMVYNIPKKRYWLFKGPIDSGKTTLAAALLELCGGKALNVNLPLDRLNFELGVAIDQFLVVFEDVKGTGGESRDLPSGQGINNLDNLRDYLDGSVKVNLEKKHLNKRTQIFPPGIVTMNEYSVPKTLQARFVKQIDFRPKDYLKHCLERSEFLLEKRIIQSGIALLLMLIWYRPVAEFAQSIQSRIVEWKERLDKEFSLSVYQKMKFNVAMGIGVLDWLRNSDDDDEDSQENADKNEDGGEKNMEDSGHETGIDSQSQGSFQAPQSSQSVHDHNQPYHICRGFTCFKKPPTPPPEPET
Induced myeloid leukemia cell differentiation protein Mcl-1, sequence (Q07820 whole entry): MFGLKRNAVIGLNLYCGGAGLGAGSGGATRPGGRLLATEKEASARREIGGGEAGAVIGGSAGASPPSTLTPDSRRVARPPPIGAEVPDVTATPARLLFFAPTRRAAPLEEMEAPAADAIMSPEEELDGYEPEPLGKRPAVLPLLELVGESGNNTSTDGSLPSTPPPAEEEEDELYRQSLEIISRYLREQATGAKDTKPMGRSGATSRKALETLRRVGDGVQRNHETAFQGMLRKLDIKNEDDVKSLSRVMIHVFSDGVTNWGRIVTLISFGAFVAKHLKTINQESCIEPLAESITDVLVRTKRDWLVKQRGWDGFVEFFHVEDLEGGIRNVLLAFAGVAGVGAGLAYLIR
72 kDa type IV collagenase, sequence (P08253 whole entry): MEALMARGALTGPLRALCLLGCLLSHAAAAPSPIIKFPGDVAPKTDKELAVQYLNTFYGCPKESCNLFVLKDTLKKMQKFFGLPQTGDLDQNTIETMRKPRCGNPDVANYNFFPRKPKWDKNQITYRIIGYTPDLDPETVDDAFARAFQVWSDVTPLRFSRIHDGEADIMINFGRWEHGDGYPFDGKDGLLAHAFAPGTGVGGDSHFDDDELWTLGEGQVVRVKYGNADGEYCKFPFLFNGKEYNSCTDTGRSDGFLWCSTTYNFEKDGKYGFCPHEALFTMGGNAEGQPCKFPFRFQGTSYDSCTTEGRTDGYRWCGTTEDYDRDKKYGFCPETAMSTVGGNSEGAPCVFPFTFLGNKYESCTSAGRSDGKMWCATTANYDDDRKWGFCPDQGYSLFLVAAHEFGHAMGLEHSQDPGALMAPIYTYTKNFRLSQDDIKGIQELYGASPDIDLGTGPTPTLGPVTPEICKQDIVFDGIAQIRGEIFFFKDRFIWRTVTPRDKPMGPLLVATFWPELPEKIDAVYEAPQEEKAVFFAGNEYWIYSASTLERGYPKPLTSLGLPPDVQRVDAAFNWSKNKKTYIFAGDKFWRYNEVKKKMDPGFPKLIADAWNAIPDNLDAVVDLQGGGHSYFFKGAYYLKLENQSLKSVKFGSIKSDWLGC
Cytochrome P450 2C9, sequence (P11712 whole entry): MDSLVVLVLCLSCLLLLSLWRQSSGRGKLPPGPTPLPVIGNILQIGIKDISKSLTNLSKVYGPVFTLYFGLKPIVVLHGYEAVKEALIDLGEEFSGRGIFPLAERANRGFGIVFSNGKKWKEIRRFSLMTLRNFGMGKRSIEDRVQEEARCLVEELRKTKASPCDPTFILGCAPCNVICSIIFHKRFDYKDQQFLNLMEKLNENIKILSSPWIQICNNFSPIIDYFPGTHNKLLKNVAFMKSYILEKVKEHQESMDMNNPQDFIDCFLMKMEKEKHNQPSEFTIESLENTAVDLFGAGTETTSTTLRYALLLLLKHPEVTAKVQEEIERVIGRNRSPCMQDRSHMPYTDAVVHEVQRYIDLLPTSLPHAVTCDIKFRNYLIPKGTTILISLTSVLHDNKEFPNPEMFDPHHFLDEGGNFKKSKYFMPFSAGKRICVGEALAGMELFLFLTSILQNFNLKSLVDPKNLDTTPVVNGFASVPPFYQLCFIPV
26S proteasome non-ATPase regulatory subunit 14, sequence (O00487 whole entry): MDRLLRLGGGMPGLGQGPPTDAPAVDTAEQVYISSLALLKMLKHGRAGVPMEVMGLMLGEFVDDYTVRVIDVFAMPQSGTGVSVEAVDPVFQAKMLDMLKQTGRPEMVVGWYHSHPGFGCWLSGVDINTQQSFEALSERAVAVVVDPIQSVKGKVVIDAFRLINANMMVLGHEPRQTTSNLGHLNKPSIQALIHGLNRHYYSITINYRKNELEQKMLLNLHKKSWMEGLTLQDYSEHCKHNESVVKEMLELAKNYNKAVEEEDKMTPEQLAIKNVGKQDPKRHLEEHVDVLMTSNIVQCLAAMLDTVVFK
FAD-linked sulfhydryl oxidase ALR, sequence (P55789 whole entry): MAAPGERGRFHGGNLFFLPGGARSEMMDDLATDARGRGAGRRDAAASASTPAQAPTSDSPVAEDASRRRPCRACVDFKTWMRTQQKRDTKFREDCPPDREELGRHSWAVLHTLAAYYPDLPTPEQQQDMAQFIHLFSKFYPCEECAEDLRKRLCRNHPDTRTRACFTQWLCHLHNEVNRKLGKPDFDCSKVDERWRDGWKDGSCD
Glucose-6-phosphate 1-dehydrogenase, sequence (P11413 whole entry): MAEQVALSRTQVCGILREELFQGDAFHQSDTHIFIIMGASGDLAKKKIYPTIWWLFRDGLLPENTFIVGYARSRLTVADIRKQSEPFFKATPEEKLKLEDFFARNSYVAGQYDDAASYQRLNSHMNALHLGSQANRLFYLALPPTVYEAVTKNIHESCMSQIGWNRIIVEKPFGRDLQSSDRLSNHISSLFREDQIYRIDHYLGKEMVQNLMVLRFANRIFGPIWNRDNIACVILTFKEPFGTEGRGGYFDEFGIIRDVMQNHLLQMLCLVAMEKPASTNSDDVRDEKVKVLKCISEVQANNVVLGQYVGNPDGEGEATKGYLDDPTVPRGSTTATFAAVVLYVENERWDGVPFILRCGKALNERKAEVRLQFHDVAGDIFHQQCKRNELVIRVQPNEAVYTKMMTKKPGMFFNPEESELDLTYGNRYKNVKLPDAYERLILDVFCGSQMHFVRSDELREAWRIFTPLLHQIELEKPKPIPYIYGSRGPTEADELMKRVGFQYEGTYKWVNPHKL

COc1cc(/C=N\Nc2cc(=O)n(C)c(=O)n2C)ccc1O
IC50 [1]: 33.7 µM (active)
IC50 (Large T antigen): 23.7 µM (active)

CC[N+]1=CN(c2ccccc2)C(C)=CC1(C)C
IC50 [2]: 6.23 µM (active)

O=C(Nc1nc(=O)[nH]s1)c1ccccc1
IC50 (Leucine aminopeptidase): 18.1 µM (active)
IC50 [3]: > 50 µM (not active)

N#Cc1ccc(-c2csc(NC3=NCCCCC3)n2)cc1
IC50 [4]: > 64 µM (inactive)

O=C(Nc1nccs1)c1sc2ccccc2c1Cl
EC50 [5]: 18.4 µM (active)
EC50 (Streptokinase A): > 150 µM (not active)
CC50 [6]: > 20 µM (active)
IC50 (cells): 20.5 µM (active)
EC50 (Streptococcus): > 150 µM (not active)

O=C(c1ccc2ccccc2c1)N1CCN(c2ccc(O)cc2)CC1
IC50 (Large T antigen): 9.84 µM (active)

O=[N+]([O-])C(=c1ccc2c(c1)N1C3=C(CCCC3)CC3CCCCC31N=2)[N+](=O)[O-] (stereo not given)
IC50 [7]: 1.95 µM (active)

O=C1NC(=S)N(Cc2ccco2)C(=O)/C1=C\c1cccs1
IC50 [4]: 9.49 µM (active)

CCN(CC)c1ccc(NC(=O)c2cccc(F)c2)c(C)c1
IC50 (Large T antigen): 28.3 µM (active)
CC50 (Vero [8]): > 40 µM (active)
AC50 [9]: 1.19 µM (active)
AC50 (Cytochrome P450 2C9): inconclusive

CCCCN1C(=O)/C(=C(/C#N)C(N)=O)c2ccccc21
IC50 (Large T antigen): 60.5 µM (active)

Cc1ccc2oc(=O)n(Cc3ccccc3OC(C)C)c2c1
EC50 [10]: 8.57 µM (active)
IC50 [3]: > 50 µM (not active)

Cc1cccc(-c2nnc(SCC3CNC(=O)O3)n2-c2ccc(Cl)cc2)c1 (stereo not given)
IC50 [4]: > 64 µM (inactive)

CC(=O)c1cccc(NC(=O)c2cnn(-c3ccccc3)c2C)c1
IC50 [11]: > 80 µM (inactive)

O=C(CNC1CCCC1)Nc1ccc(N2CCCCCC2)cc1
IC50 [1]: 75.8 µM (active)
CC50 [6]: 18.1 µM (active)
IC50 (cells): 17.8 µM (active)

COc1ccc(CCn2c(C3CCCCC3)nc3c(c(=O)c4ccccc4n3C)c2=O)cc1
EC50 [12]: 0.438 µM (active)
EC50 [13]: 17.1 µM (active)
CC50 (Vero [14]): 9.23 µM (active)
EC50 [15]: > 120 µM (not active)
AC50 [16]: 2.4 µM (active)

O=C1CSC(=S)N1/N=C/c1ccc(O)c([N+](=O)[O-])c1
IC50 (Large T antigen): 26.8 µM (active)
IC50 [7]: 6.99 µM (active)

CC1(C)CC(=O)C2=C(C1)OC(N)=C(C#N)C2C#Cc1ccccc1 (stereo not given)
CC50 [17]: 38.4 µM (active)
EC50 [18]: 38.3 µM (active)

Cc1cc(OCC[N+]2(C)CCCCC2)nc2ccccc12
IC50 [2]: 3.69 µM (active)

O=C(O)c1ccc(COc2ccccc2/C=C2/NC(=O)N(c3cccc(Cl)c3)C2=O)cc1
IC50 [19]: 15.6 µM (active)
IC50 [20]: 18.7 µM (active)
IC50 [2]: 2.75 µM (active)
IC50 (Prothrombin): > 100 µM (inactive)
